According to article PMC9405216, “Antimicrobial and Cytotoxic Cyathane-Xylosides from Cultures of the Basidiomycete Dentipellis fragilis” (Antibiotics, 2022):
Values after ≈ are worked out from the molar mass of the structure shown. Where two headings read alike, the source gives them in different places. Marks after values point to notes of the source that are not given here.

Legend:
Type in all cases: cell-based
[1] = system: KB3.1 (ACC158) human endocervical adenocarcinoma; test: MTT cytotoxicity test, KB3.1; conditions: KB3.1 human endocervical adenocarcinoma, five days incubation, n.c. = no cytotoxicity, read-out: IC50
Excerpt: (§1) A panel of mammalian cell lines was used to determine the cytotoxicity of the compounds following a previously published protocol. The assay was initially performed using the sensitive cell lines KB3.1 (human endocervical adenocarcinoma) and L929 (mouse fibroblasts). Active compounds were further tested using the cell lines MCF-7 (human breast adenocarcinoma), PC-3 (human prostate adenocarcinoma), SKOV-3 (ovarian carcinoma), A549 (human lung carcinoma), and A431 (human squamous cell carcinomas) (Table 6). The cell lines A549, KB 3.1, and L929 were cultured in DMEM (Gibco, provided by Thermo Fisher Scientific), PC-3 in F12-K (Gibco) and MC-7, and SKOV-3 and A431 in RPMI (Gibco). With the exception of A549, all cell lines were supplemented with 10% bovine serum (Gibco). All cell lines were cultured at 37 °C. The L929 and KB 3.1 cell lines were cultivated under an atmosphere of 10% (v/v) carbon dioxide. Cytotoxicity tests were then carried out using MTT (3-(4,5-dimethylthiazol-2-yl)-2,5-diphenyltetrazolium bromide) in 96-well microtiter plates. Serial dilutions of the compounds (60 µL aliquots, each with an initial concentration of 1 mg/mL) were added into 120 µL aliquots of cell suspension (50000 cells/mL) in the 96-well plates. These were incubated for five days, after which an MTT assay was performed. The absorbance was taken at 590 nm using an Elisa plate reader (Victor, Überlingen, Germany). The half-maximal inhibitory concentration (IC50), the concentration at which cell growth inhibition was 50% of the control, was calculated as described elsewhere.

[2] = system: L929 (ACC2) mouse fibroblasts; test: MTT cytotoxicity test, L929; conditions: five days incubation, n.c. = no cytotoxicity, read-out: IC50
Excerpt: as §1

[3] = system: Actinobacter baumannii (DSM 30008); test: Serial dilution MIC assay, Actinobacter baumannii; conditions: serial dilution 67-0.5 µg/mL, overnight incubation, n.i. = no inhibition, read-out: MIC
Protocol: (§2) Serial dilution assays in 96-well microtiter plates were performed according to our standard protocol in order to determine the minimum inhibitory concentrations (MICs) of pure isolated compounds against different microorganisms. Essentially, aliquots of compounds 1–5 and 9 (20 µL), each with an initial concentration of 1 mg/mL, were diluted in MeOH together with the respective microorganisms to concentrations ranging between 67 µg/mL and 0.5 µg/mL in the 96-well plates, followed by overnight incubation. The MIC was then determined as the lowest concentration at which no growth of the test organism was observed. A broad spectrum of clinically approved test pathogens and sensitivity indicator strains were used in the assays (Table 4 and Table 5). Ciprofloxacin, oxytetracycline, kanamycin, and gentamycin were used as positive controls against bacterial pathogens, while nystatin was used as the positive control against fungi.

[4] = system: MCF-7 (A115) human breast adenocarcinoma; test: MTT cytotoxicity test, MCF-7; conditions: MCF-7 human breast adenocarcinoma, five days incubation
Excerpt: as §1

[5] = system: A549 (ACC107) human lung carcinoma; test: MTT cytotoxicity test, A549; conditions: five days incubation
Excerpt: as §1

[6] = system: SKOV-3 (ovarian carcinoma); test: MTT cytotoxicity test, SKOV-3; conditions: five days incubation
Excerpt: as §1

[7] = system: A431 (ACC91) human squamous cell carcinomas; test: MTT cytotoxicity test, A431; conditions: five days incubation
Excerpt: as §1

[8] = system: PC-3 (ACC465) human prostate adenocarcinoma; test: MTT cytotoxicity test, PC-3; conditions: PC-3 human prostate adenocarcinoma, five days incubation
Excerpt: as §1

[9] = system: Mycolicibacterium smegmatis (ATCC 700084); test: Serial dilution MIC assay, Mycolicibacterium smegmatis; conditions: serial dilution 67-0.5 µg/mL, overnight incubation, n.i. = no inhibition
Protocol: as §2

[10] = system: Schizosaccharomyces pombe (DSM 70572); test: Serial dilution MIC assay, Schizosaccharomyces pombe; conditions: serial dilution 67-0.5 µg/mL, overnight incubation, n.i. = no inhibition
Protocol: as §2

[11] = system: Rhodotorula glutinis (DSM 10134); test: Serial dilution MIC assay, Rhodotorula glutinis; conditions: serial dilution 67-0.5 µg/mL, overnight incubation, n.i. = no inhibition
Protocol: as §2

[12] = system: Candida albicans (DSM 1665); test: Serial dilution MIC assay, Candida albicans; conditions: serial dilution 67-0.5 µg/mL, overnight incubation, n.i. = no inhibition
Protocol: as §2

[13] = system: Pichia anomala (DSM 6766); test: Serial dilution MIC assay, Pichia anomala; conditions: serial dilution 67-0.5 µg/mL, overnight incubation, n.i. = no inhibition
Protocol: as §2

[14] = system: Mucor hiemalis (DSM 2656); test: Serial dilution MIC assay, Mucor hiemalis; conditions: serial dilution 67-0.5 µg/mL, overnight incubation, n.i. = no inhibition
Protocol: as §2

[15] = system: Bacillus subtilis (DSM 10); test: Serial dilution MIC assay, Bacillus subtilis; conditions: DSM10, serial dilution 67-0.5 µg/mL, overnight incubation, n.i. = no inhibition, read-out: MIC
Protocol: as §2

[16] = system: Staphylococcus aureus (DSM 346); test: Serial dilution MIC assay, Staphylococcus aureus; conditions: DSM346, serial dilution 67-0.5 µg/mL, overnight incubation, n.i. = no inhibition, read-out: MIC
Protocol: as §2

[17] = system: Escherichia coli (DSM 1116); test: Serial dilution MIC assay, Escherichia coli; conditions: DSM1116, serial dilution 67-0.5 µg/mL, overnight incubation, n.i. = no inhibition, read-out: MIC
Protocol: as §2

[18] = system: Chromobacterium violaceum (DSM 30191); test: Serial dilution MIC assay, Chromobacterium violaceum; conditions: DSM30191, serial dilution 67-0.5 µg/mL, overnight incubation, n.i. = no inhibition, read-out: MIC
Protocol: as §2

[19] = system: Pseudomonas aeruginosa (DSM PA14); test: Serial dilution MIC assay, Pseudomonas aeruginosa; conditions: serial dilution 67-0.5 µg/mL, overnight incubation, n.i. = no inhibition
Protocol: as §2

For `CO[C@H]1O[C@H]2[C@H](O)CO[C@H]3O[C@H]4[C@@H](C1=CC[C@@H]1C5=C(C(C)C)CC[C@]5(C)CC[C@]14C)[C@]32O` [Compound 8, dentifragilin H], the IC50 ([1]; KB 3-1, 120 h) was 2000 nM and the IC50 ([2]; 120 h) was 10000 nM.

In the case of `O=C(O)c1cn(C2CC2)c2cc(N3CCNCC3)c(F)cc2c1=O` [ciprofloxacin, reference compound], the MIC [3] is reported as 0.3 µg/mL (≈ 0.905 µM).

Work on `C/C(=C\c1csc(C)n1)[C@@H]1C[C@@H]2O[C@]2(C)CCC[C@H](C)[C@H](O)[C@@H](C)C(=O)C(C)(C)[C@@H](O)CC(=O)O1` [epothilon B, reference compound] yielded an IC50 [4] of 0.03 nM, an IC50 [5] of 0.095 nM and an IC50 [6] of 0.051 nM. It also gave an IC50 [1] of 0.033 nM, an IC50 [2] of 0.047 nM and an IC50 [7] of 0.067 nM. For the same compound, the IC50 [8] was 0.15 nM.

In the case of `NC[C@H]1O[C@H](O[C@H]2[C@H](O)[C@@H](O[C@H]3O[C@H](CO)[C@@H](O)[C@H](N)[C@H]3O)[C@H](N)C[C@@H]2N)[C@H](O)[C@@H](O)[C@@H]1O` [kanamycin, reference compound], the MIC [9] is reported as 1.7 ^b µg/mL.

`C[C@@H]1[C@H](O)[C@@H](C)/C=C/C=C/CC/C=C/C=C/C=C/C=C/C(O[C@H]2O[C@H](C)[C@@H](O)[C@H](N)[C@@H]2O)CC2O[C@](O)(CC(O)C(O)CCC(O)CC(O)CC(O)CC(=O)O[C@H]1C)CC(O)C2C(=O)O` (stereo partly drawn) [nystatin, reference compound] was tested, and the MIC [10] was 4.2 µg/mL (≈ 4.54 µM), the MIC [11] was 2.1 µg/mL (≈ 2.27 µM) and the MIC [12] was 8.3 µg/mL (≈ 8.96 µM). It also gave an MIC [13] of 8.3 µg/mL (≈ 8.96 µM) and an MIC [14] of 4.2 µg/mL (≈ 4.54 µM).

With `CN(C)[C@@H]1C(O)=C(C(N)=O)C(=O)[C@@]2(O)C(O)=C3C(=O)c4c(O)cccc4[C@@](C)(O)[C@H]3[C@H](O)[C@@H]12` [oxytetracycline, reference compound] the MIC [15] was 4.2 µg/mL (≈ 9.12 µM), the MIC [16] was 0.2 µg/mL (≈ 0.434 µM) and the MIC [17] was 3.3 µg/mL (≈ 7.17 µM). The MIC [18] was 0.8 µg/mL (≈ 1.74 µM).

For gentamycin [reference compound], the MIC [19] was 0.4 ^d µg/mL.
